Data taken from patent publication US11136324B2, “Substituted imidazoles as apoptosis signal regulating kinase 1 inhibitors” (Jiangsu Hansoh Pharmaceutical Group Co., Ltd., priority 2017, dated 2021).

What was measured:
[1] = Pharmacokinetic (PK) assay in mice; assay type: in vivo; conditions: Balb/c male mice, single intragastric administration, 5 mg/kg, plasma; for AUC(0-t) / AUC(0-inf) / half-life / MRT / Cmax: mouse, po; for AUC(0-t): read-out: Area under curve AUC0-t; for AUC(0-inf): read-out: Area under curve AUC0-∞; for half-life: read-out: Half-life t1/2 (converted); for MRT: read-out: Mean residence time MRT; for Cmax: read-out: Plasma concentration Cmax
Method: 2. Pharmacokinetic (PK) Assay in Mice
The pharmacokinetic test of the preferred examples of the present invention in mice was carried out in Balb/c male mice (Shanghai Jiesijie Laboratory Animal Co., LTD).
Administration mode: single intragastric administration.
Administration dosage: 5 mg/10 ml/kg.
Formulation: 0.5% CMC-Na, ultrasonic dissolution.
Sampling points: 0.5, 1, 2, 4, 6, 8 and 24 hours after administration.
1) 0.1 mL of blood was taken from the orbit, placed in a K2EDTA tube, and centrifuged for 5˜20 min at room temperature at 1000˜3000×g to separate the plasma, which was then stored at −80° C.
2) 160 μL of acetonitrile was added to 40 μL of plasma sample for precipitation, and then the mixture was centrifuged for 5˜20 minutes at 500˜2000×g.
3) 100 μL, of processed supernatant was taken and analyzed by LC/MS/MS assay to determine the concentration of the test compound.
LC-MS/MS Assay: • Liquid chromatography condition: Shimadzu LC-20AD pump • Mass spectrometry condition: AB Sciex API 4000 mass spectrometer • Chromatographic column: phenomenex Gemiu 5 μm C18 50×4.6 mm • Mobile phase: solution A was 0.1% aqueous formic acid solution, and solution B was acetonitrile • Flow rate: 0.8 mL/min • Elution time: 0-3.5 minutes gradient elution
The main parameters were calculated using WinNonlin 6.1.

[2] = molecular target: ASK1 kinase (Homo sapiens (Human), UniProt Q99683); assay: ASK1 enzymatic test (TR-FRET); assay type: biochemical; conditions: ASK1 kinase activity
Chain of ASK1 kinase (Q99683 whole entry): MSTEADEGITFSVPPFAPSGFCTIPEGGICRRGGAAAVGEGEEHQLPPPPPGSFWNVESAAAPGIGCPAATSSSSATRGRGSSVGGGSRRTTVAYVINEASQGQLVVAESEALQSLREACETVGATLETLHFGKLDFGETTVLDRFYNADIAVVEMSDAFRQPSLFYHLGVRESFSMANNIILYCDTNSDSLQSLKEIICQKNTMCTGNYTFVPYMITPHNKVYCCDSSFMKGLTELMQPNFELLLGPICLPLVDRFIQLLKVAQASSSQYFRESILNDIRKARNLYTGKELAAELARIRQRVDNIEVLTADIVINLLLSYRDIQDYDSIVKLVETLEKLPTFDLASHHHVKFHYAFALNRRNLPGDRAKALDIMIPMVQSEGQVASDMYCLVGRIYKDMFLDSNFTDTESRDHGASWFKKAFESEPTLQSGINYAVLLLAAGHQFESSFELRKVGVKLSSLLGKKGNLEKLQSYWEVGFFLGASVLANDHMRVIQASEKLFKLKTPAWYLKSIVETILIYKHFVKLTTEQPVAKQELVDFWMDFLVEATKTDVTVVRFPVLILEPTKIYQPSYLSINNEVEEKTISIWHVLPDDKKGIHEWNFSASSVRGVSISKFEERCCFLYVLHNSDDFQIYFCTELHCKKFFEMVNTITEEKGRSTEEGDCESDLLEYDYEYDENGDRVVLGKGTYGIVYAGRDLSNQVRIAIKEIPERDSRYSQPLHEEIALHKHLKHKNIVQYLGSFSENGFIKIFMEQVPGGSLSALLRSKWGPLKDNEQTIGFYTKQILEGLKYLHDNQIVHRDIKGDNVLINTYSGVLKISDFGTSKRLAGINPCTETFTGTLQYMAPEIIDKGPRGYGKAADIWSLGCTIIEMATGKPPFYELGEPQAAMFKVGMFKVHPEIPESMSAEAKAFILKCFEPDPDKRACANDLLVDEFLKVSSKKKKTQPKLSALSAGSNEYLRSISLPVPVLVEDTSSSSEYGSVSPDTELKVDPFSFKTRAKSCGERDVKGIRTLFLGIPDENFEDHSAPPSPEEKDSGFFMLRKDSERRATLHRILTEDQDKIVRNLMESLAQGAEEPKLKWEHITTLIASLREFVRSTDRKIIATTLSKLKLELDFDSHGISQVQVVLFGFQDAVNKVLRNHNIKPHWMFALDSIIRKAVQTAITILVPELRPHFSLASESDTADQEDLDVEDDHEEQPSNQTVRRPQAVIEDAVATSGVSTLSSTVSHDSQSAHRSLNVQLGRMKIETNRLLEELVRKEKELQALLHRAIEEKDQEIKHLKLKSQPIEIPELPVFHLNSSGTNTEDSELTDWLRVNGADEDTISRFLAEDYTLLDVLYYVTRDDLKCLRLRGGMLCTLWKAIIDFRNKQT
Method: In this test, the fluorescence-resonance energy transfer (TR-FRET) method was used to determine the inhibition effect of the test compounds on ASK1 kinase activity, and the half maximal inhibitory concentration IC50 of the compounds on ASK1 kinase activity was obtained.
1) 1˜5 μL of ASK1 enzyme solution was added to a 384-well plate, and the final concentration of the enzyme was 0.220 nM.
2) 1˜5 μL of gradient-diluted compound solution was added.
3) 1˜5 μL of a substrate mixture containing substrate polypeptides (final concentration: 100˜5000 nM) and ATP (final concentration: 100˜1000 uM) were added.
4) The mixture was incubated at room temperature for 0.5 to 5 hours.
5) 10 μL of EDTA and test solution containing labeled antibody were added, and the plate was incubated at room temperature for 2 to 24 hours.
6) The fluorescence signal value of each well was determined by a microplate reader at about 615 nm and 665 nm.
7) The inhibition rate was calculated by the fluorescence signal value.
8) The IC50 of the compound was obtained by curve fitting according to the inhibition rate at different concentrations.

SMILES	Peak time tmax [1] [h]	AUC(0-t) [1] [ng·h/mL]	AUC(0-inf) [1] [ng·h/mL]	half-life [1] [h]	MRT [1] [h]	Cmax [1] [ng/mL]	IC50 [2] [nM]
Cc1cc(F)c(C(=O)Nc2cccc(-c3nnc4n3CCC4)n2)cc1-n1cnc(C2CC2)c1 [Example 1, 5-(4-cyclopropyl-1H-imidazol-1-yl)-N-(6-(6,7-dihydro-5H-pyrrolo[2,1-c][1,2,4]triazol-3-yl)pyridin-2-yl)-2-fluoro-4-methylbenzamide]	0.5	104000	104000	2.9	4.2	18300	6
Cc1cc(F)c(C(=O)Nc2cccc(-c3nnc4n3CCCCC4)n2)cc1-n1cnc(C2CC2)c1 [Example 2, 5-(4-Cyclopropyl-1H-imidazol-1-yl)-2-fluoro-4-methy 1-N-(6-(6,7,8,9-tetrahydro-5H-[1,2,4]triazolo[4,3-a]azepin-3-yl)pyridin-2-yl)benzamide]							9.3
Cc1cc(F)c(C(=O)Nc2cccc(-c3nnc4n3CCCC4)n2)cc1-n1cnc(C2CC2)c1 [Example 3, 5-(4-Cyclopropyl-1H-imidazol-1-yl)-2-fluoro-4-methyl-N-(6-(5,6,7,8-tetrahydro-[1,2,4]triazolo[4,3-a]pyridin-3-yl)pyridin-2-yl)benzamide]							13.4
Cc1cc(F)c(C(=O)Nc2cccc(-c3nnc4n3CCOC4)n2)cc1-n1cnc(C2CC2)c1 [Example 4, 5-(4-Cyclopropyl-1H-imidazol-1-yl)-N-(6-(5,6-dihydro-8H-[1,2,4]triazolo[3,4-c][1,4]oxazin-3-yl)pyridin-2-yl)-2-fluoro-4-methylbenzamide]							47.8
O=C(Nc1cccc(-c2nnc3n2CCC3)c1)c1cc(-n2cnc(C3CC3)c2)ccn1 [Example 7, 4-(4-Cyclopropyl-1H-imidazol-1-yl)-N-(3-(6,7-dihydro-5H-pyrrolo[2,1-c][1,2,4]triazol-3-yl)phenyl)picolinamide]							19.6
Cc1cc(F)c(C(=O)Nc2cccc(-c3nnc4n3[C@H](C)CC4)n2)cc1-n1cnc(C2CC2)c1 [Example 8, (R)-5-(4-Cyclopropyl-1H-imidazol-1-yl)-2-fluoro-4-methyl-N-(6-(5-methyl-6,7-dihydro-5H-pyrrolo[2,1-c][1,2,4]triazol-3-yl)pyridin-2-yl)benzamide]	1	29700	29800	2.7	4.6	4810	1.8
Cc1cc(F)c(C(=O)Nc2cccc(-c3nnc4n3[C@@H](C)CC4)n2)cc1-n1cnc(C2CC2)c1 [Example 9, (S)-5-(4-Cyclopropyl-1H-imidazol-1-yl)-2-fluoro-4-methyl-N-(6-(5-methyl-6,7-dihydro-5H-pyrrolo[2,1-c][1,2,4]triazol-3-yl)pyridin-2-yl)benzamide]	0.5	38100	38400	4.4	5.5	4370	5
COC[C@@H]1CCc2nnc(-c3cccc(NC(=O)c4cc(-n5cnc(C6CC6)c5)c(C)cc4F)n3)n21 [Example 11, (S)-5-(4-Cyclopropyl-1H-imidazol-1-yl)-2-fluoro-N-(6-(5-(methoxymethyl)-6,7-dihydro-5H-pyrrolo[2,1-c][1,2,4]triazol-3-yl)pyridin-2-yl)-4-methylbenzamide]	1	29400	29400	1.1	2.1	13200	10.6
Cc1cc(F)c(C(=O)Nc2cccc(-c3nnc4n3[C@H](C)CC4)n2)cc1-n1cnc(C(C)C)c1 [Example 13, (R)-2-Fluoro-5-(4-isopropyl-1H-imidazol-1-yl)-4-methyl-N-(6-(5-methyl-6,7-dihydro-5H-pyrrolo[2,1-c][1,2,4]triazol-3-yl)pyridin-2-yl)benzamide]	1	11700	11800	1	2	5060	2.7
Cc1cc(F)c(C(=O)Nc2cccc(-c3nnc4n3CC(C3CC3)C4)n2)cc1-n1cnc(C2CC2)c1 (stereo not drawn) [Example 30, 5-(4-Cyclopropyl-1H-imidazol-1-yl)-N-(6-(6-cyclopropyl-6,7-dihydro-5H-pyrrolo[2,1-c][1,2,4]triazol-3-yl)pyridin-2-yl)-2-fluoro-4-methylbenzamide]							11.4
Cc1cc(F)c(C(=O)Nc2cccc(-c3nnc4n3CC3(CC3)C4)n2)cc1-n1cnc(C2CC2)c1 [Example 31, N-(6-(5′H,7′H-Spiro[cyclopropane-1,6′-pyrrolo[2,1-c][1,2,4]triazol]-3′-yl)pyridin-2-yl)-5-(4-cyclopropyl-1H-imidazol-1-yl)-2-fluoro-4-methylbenzamide]							10.9
Cc1cc(F)c(C(=O)Nc2cccc(-c3nnc4n3C[C@@H](C)C4)n2)cc1-n1cnc(C2CC2)c1 [Example 35, (S)-5-(4-Cyclopropyl-1H-imidazol-1-yl)-2-fluoro-4-methyl-N-(6-(6-methyl-6,7-di hydro-5H-pyrrolo[2,1-c][1,2,4]triazol-3-yl)pyridin-2-yl)benzamide]	1	107000	108000	3.7	5	13500	
CO[C@H](C)[C@H]1CCc2nnc(-c3cccc(NC(=O)c4cc(-n5cnc(C6CC6)c5)c(C)cc4F)n3)n21 [Example 36, 5-(4-Cyclopropyl-1H-imidazol-1-yl)-2-fluoro-N-(6-((R)-5-((R)-1-methoxyethyl)-6,7-di hydro-5H-pyrrolo[2,1-c][1,2,4]triazol-3-yl)pyridin-2-yl)-4-methylbenzamide]							9.1

Second part, the molecule after the results:

Peak time tmax [1] [h]	AUC(0-t) [1] [ng·h/mL]	AUC(0-inf) [1] [ng·h/mL]	half-life [1] [h]	MRT [1] [h]	Cmax [1] [ng/mL]	IC50 [2] [nM]	SMILES
						3.6	C#CC1CCc2nnc(-c3cccc(NC(=O)c4cc(-n5cnc(C6CC6)c5)c(C)cc4F)n3)n21 (stereo not drawn) [Example 44, 5-(4-Cyclopropyl-1H-imidazol-1-yl)-N-(6-(5-ethynyl-6,7-dihydro-5H-pyrrolo[2,1-c][1,2,4]triazol-3-yl)pyridin-2-yl)-2-fluoro-4-methylbenzamide]
						6.1	Cc1cc(F)c(C(=O)Nc2cccc(-c3nnc4n3[C@H](CC#N)CC4)n2)cc1-n1cnc(C2CC2)c1 [Example 48, (S)—N-(6-(5-(Cyanomethyl)-6,7-dihydro-5H-pyrrolo[2,1-c][1,2,4]triazol-3-yl)pyridin-2-yl)-5-(4-cyclopropyl-1H-imidazol-1-yl)-2-fluoro-4-methylbenzamide]
						9.6	Cc1cc(F)c(C(=O)Nc2cccc(-c3nnc4n3[C@H](CO)CC4)n2)cc1-n1cnc(C2CC2)c1 [Example 50, (S)-5-(4-Cyclopropyl-1H-imidazol-1-yl)-2-fluoro-N-(6-(5-(hydroxymethyl)-6,7-dihydro-5H-pyrrolo[2,1-c][1,2,4]triazol-3-yl)pyridin-2-yl)-4-methylbenzamide]
0.5	70500	70600	3	4.7	9970		Cc1cc(F)c(C(=O)Nc2cccc(-c3nnc4n3[C@@H](CF)CC4)n2)cc1-n1cnc(C2CC2)c1 [Example 52, (R)-5-(4-Cyclopropyl-1H-imidazol-1-yl)-2-fluoro-N-(6-(5-(fluoromethyl)-6,7-dihydro-5H-pyrrolo[2,1-c][1,2,4]triazol-3-yl)pyridin-2-yl)-4-methylbenzamide]
						8.2	Cc1cc(Cl)c(C(=O)Nc2cccc(-c3nnc4n3[C@H](C)CC4)n2)cc1-n1cnc(C2CC2)c1 [Example 53, (R)-2-Chloro-5-(4-cyclopropyl-1H-imidazol-1-yl)-4-methyl-N-(6-(5-methyl-6,7-dihydro-5H-pyrrolo[2,1-c][1,2,4]triazol-3-yl)pyridin-2-yl)benzamide]
						3	Cc1cc(F)c(C(=O)Nc2cccc(-c3nnc4n3C3(CC4)CC3)n2)cc1-n1cnc(C(C)C)c1 [Example 62, N-(6-(6′,7′-Dihydrospiro[cyclopropane-1,5′-pyrrolo[2,1-c][1,2,4]triazol]-3′-yl)pyridin-2-yl)-2-fluoro-5-(4-isopropyl-1H-imidazol-1-yl)-4-methylbenzamide]
						8.4	Cc1cc2c(cc1-n1cnc(C3CC3)c1)C(=O)N(c1cccc(-c3nnc4n3CCC4)n1)C2 [Example 63, 6-(4-Cyclopropyl-1H-imidazol-1-yl)-2-(6-(6,7-dihydro-5H-pyrrolo[2,1-c][1,2,4]triazol-3-yl)pyridin-2-yl)-5-methylisoindolin-1-one]
